# Test results: patent publication US6143780A, “N-arylmethylthioanilide compounds useful for the inhibition of the replication of HIV” (Uniroyal Chemical Company, Inc., priority 1999, dated 2000)
# Several values for one entry are separate records, joined by “and”; a condition that tells them apart may be missing. Equal values may be shown once. Read-outs that look alike come from different tables or passages of the source.
# What was measured:
# Assay type in all cases: cell-based
# HIV-1 (IIIB) = assay: inhibition of HIV-1(IIIB) (WT) induced syncytium formation in CEM cells
# Source text: (§1) CEM cells were obtained from the American Tissue Cell Culture Collection (Rockville, Md.) . HIV-1 (IIIB) was originally obtained from the culture supernatant of persistently HIV-1-infected H9 cells and was provided by R. C. Gallo and M. Popovic (National Cancer Institute, National Institutes of Health, Bethesda, Md.).
# (§2) CEM cells were suspended at ≈300,000 cells per ml of culture medium and infected with approximately 100 CCID50 (CCID50 being the 50% cell culture infective dose) of HIV-1(IIIB) (designated as "WT" in Table 3) or one of the HIV-1 RT mutant strains described above. Then 100 μl of the infected cell suspensions was added to 200 μl microtiter plate wells containing 100 μl of appropriate serial (5-fold) dilutions of the test compounds. The inhibitiory effect of the test compounds on HIV-1 induced syncytium formation in CEM cells was examined microscopically on day 4 post infection. The 50% effective concentration (EC50) was defined as the test compound concentration that inhibits syncytium formation in the HIV-1-infected cell cultures by 50%.
# 138-Lys = assay: inhibition of syncytium formation in CEM cells, HIV-1 RT mutant 138-Lys; details: Human immunodeficiency virus 1, CCRF-CEM, 96 h, read-out: EC50 138-Lys
# Source text: as §1
# (§3) The selection and characterization of the HIV-1 RT mutant strains were done as follows: HIV-1/100-Ile ("100-Ile") was selected for resistance against TIBO R82150 as described in Balzarini et al, Virology 192: 246-253 (1993); HIV-1/103-Asn ("103-Asn") was selected for resistance against TIBO R82913 as described in Balzarini et al, Virology 192: 246-253 (1993); HIV-1/106-Ala ("106-Ala") was selected for resistance against nevirapine as described in Balzarini et al, J. Virol. 67: 5353-5359 (1993); HIV-1/Lys-138 ("Lys-138") was selected for resistance against TSAO-m^3T as described in Balzarini et al, Virology 192: 246-253 (1993) and Balzarini et al, Proc. Nat. Acad. Sci. USA 90: 6952-6956 (1993); HIV-1/181-Cys ("181-Cys") was selected for resistance against pyridinone L-697,661 as described in Balzarini et al, Virology 192: 246-253 (1993); and HIV-1/188-His ("188-His") was selected for resistance against HEPT as described in Balzarini et al, Mol. Pharmocol. 44: 694-701 (1993). 188-His was then further converted to HIV-1/188-Leu ("188-Leu") upon further passage in cell culture in the absence of the HEPT. HIV-1/101-Glu ("101-Glu") and HIV-1/190-Glu ("190-Glu") were selected for resistance against the thiocarboxanilide derivative designated as UC38 as described in Balzarini et al, Antiviral Research 27: 219-236 (1995). HIV-1/184-Ile ("184-Ile") was selected for resistance against the combination of 3TC and TSAO-m^3 T as described in Balzarini et al, Molecular Pharm. 49: 882-890 (1996). HIV-1/184-Val ("184-Val") was selected for resistance against 3TC as described in Balzarini et al, Molecular Pharm. 49: 882-890 (1996).
# as §2
# HIV-1/184-Val = assay: inhibition of syncytium formation in CEM cells, HIV-1 RT mutant 184-Val; details: Human immunodeficiency virus 1, CCRF-CEM, 96 h, read-out: EC50 184-Val
# Source text: as §1, §3, §2
# HIV-1/188-His = assay: inhibition of syncytium formation in CEM cells, HIV-1 RT mutant 188-His; details: Human immunodeficiency virus 1, CCRF-CEM, 96 h, read-out: EC50 188-His
# Source text: as §1, §3, §2
# HIV-1/184-Ile = assay: inhibition of syncytium formation in CEM cells, HIV-1 RT mutant 184-Ile; details: Human immunodeficiency virus 1, CCRF-CEM, 96 h, read-out: EC50 184-IIe
# Source text: as §1, §3, §2
# 103-Ala = assay: inhibition of syncytium formation in CEM cells, HIV-1 RT mutant 103-Ala; details: Human immunodeficiency virus 1, CCRF-CEM, 96 h, read-out: EC50 103-Ala
# HIV-1/100-Ile = assay: inhibition of syncytium formation in CEM cells, HIV-1 RT mutant 100-Ile; details: Human immunodeficiency virus 1, CCRF-CEM, 96 h, read-out: EC50 100-Ile
# Source text: as §1, §3, §2
# HIV-1/190-Glu = assay: inhibition of syncytium formation in CEM cells, HIV-1 RT mutant 190-Glu; details: Human immunodeficiency virus 1, CCRF-CEM, 96 h, read-out: EC50 190-Glu
# Source text: as §1, §3, §2
# HIV-1/101-Glu = assay: inhibition of syncytium formation in CEM cells, HIV-1 RT mutant 101-Glu; details: Human immunodeficiency virus 1, CCRF-CEM, 96 h, read-out: EC50 101-Glu
# Source text: as §1, §3, §2
# HIV-1/181-Cys = assay: inhibition of syncytium formation in CEM cells, HIV-1 RT mutant 181-Cys; details: Human immunodeficiency virus 1, CCRF-CEM, 96 h, read-out: EC50 181-Cys
# Source text: as §1, §3, §2
# [1] = Table 2, day 4 post infection, replicate values, read-out: EC50, Activity Against HIV-1 (IIIB)
# [2] = Human immunodeficiency virus 1, IIIB, CCRF-CEM, 96 h, Table 2, day 4 post infection, replicate values, read-out: EC50, Activity Against HIV-1 (IIIB)
SMILES,EC50 (HIV-1 (IIIB); [1]),further results
Cc1occc1C(=O)Nc1ccc(Cl)c(COc2ccccc2)c1 [Compound 1],2380 nM and 1550 nM and 4810 nM,
Cc1occc1C(=O)Nc1ccc(Cl)c(CSc2ccccc2F)c1 [Compound 72],14900 nM and 12100 nM,
COC(=O)c1sccc1OCc1cc(NC(=O)c2ccoc2C)ccc1Cl [Compound 73],131000 nM and 21200 nM,
Cc1occc1C(=S)Nc1ccc(Cl)c(COc2c(F)c(F)cc(F)c2F)c1 [Compound 60],10.6 nM and 4.62 nM,
COc1ccccc1OCc1cc(NC(=O)c2ccoc2C)ccc1Cl [Compound 12],488 nM and 379 nM and 899 nM,
COc1cccc(F)c1OCc1cc(NC(=O)c2ccoc2C)ccc1Cl [Compound 31],77.8 nM and 124 nM and 213 nM,
Cc1occc1C(=S)Nc1ccc(Cl)c(COc2cccc(Cl)c2)c1 [Compound 7],68.2 nM and 52.5 nM and 432 nM,"EC50 (138-Lys): 0.33 µg/mL; EC50 (HIV-1/184-Val): 0.1 µg/mL; EC50 (HIV-1 (IIIB); Human immunodeficiency virus 1, IIIB, CCRF-CEM, 96 h, Table 3, HIV-1(IIIB), day 4 post infection, read-out: EC50 WT): 0.09 µg/mL; EC50 (HIV-1/188-His): 0.95 µg/mL; EC50 (HIV-1/184-Ile): 0.4 µg/mL; EC50 (103-Ala): ≥ 2 µg/mL; EC50 (HIV-1/100-Ile): 0.65 µg/mL; EC50 (HIV-1/190-Glu): ≥ 10 µg/mL; EC50 (HIV-1/101-Glu): 2 µg/mL; EC50 (HIV-1/181-Cys): 0.44 µg/mL"
Cc1occc1C(=S)Nc1ccc(Cl)c(COc2c(F)c(F)c(F)c(F)c2F)c1 [Compound 59],117 nM,EC50 (HIV-1 (IIIB); [2]): 199 nM
CC(=O)c1ccccc1OCc1cc(NC(=S)c2ccoc2C)ccc1Cl [Compound 54],6670 nM and 15300 nM,
Cc1occc1C(=O)Nc1ccc(Cl)c(COc2ccccc2[N+](=O)[O-])c1 [Compound 13],301 nM and 208 nM and 358 nM,
Cc1occc1C(=O)Nc1ccc(Cl)c(OCc2ccccc2F)c1 [Compound 69],359 nM and 317 nM and 244 nM,
CC(=O)Oc1ccccc1OCc1cc(NC(=S)c2ccoc2C)ccc1Cl [Compound 33],1390 nM and 2830 nM and 2670 nM,
Cc1occc1C(=S)Nc1ccc(Cl)c(CSc2ccccn2)c1 [Compound 80],150 nM,EC50 (HIV-1 (IIIB); [2]): 218 nM
Cc1occc1C(=O)Nc1ccc(Cl)c(OCc2sccc2Br)c1 [Compound 75],588 nM and 1500 nM and 2600 nM,
Cc1occc1C(=O)Nc1ccc(Cl)c(COc2c(F)c(F)cc(F)c2F)c1 [Compound 58],281 nM,EC50 (HIV-1 (IIIB); [2]): 475 nM
Cc1occc1C(=O)Nc1ccc(Cl)c(COc2c(F)cccc2F)c1 [Compound 20],799 nM,EC50 (HIV-1 (IIIB); [2]): 496 nM
Cc1occc1C(=S)Nc1ccc(Br)c(COc2ccccc2C(F)(F)F)c1 [Compound 65],0.281 nM,EC50 (HIV-1 (IIIB); [2]): 0.29 nM
CC(=NN(C)C)c1ccccc1OCc1cc(NC(=O)c2ccoc2C)ccc1Cl [Compound 56],2910 nM and 3580 nM,EC50 (HIV-1 (IIIB); [2]): 2230 nM
Cc1occc1C(=O)Nc1ccc(Cl)c(COc2ccc(F)cc2)c1 [Compound 10],4260 nM,EC50 (HIV-1 (IIIB); [2]): 4150 nM
COc1cccc(F)c1OCc1cc(NC(=O)c2ccoc2C)ccc1Br [Compound 63],7.55 nM,EC50 (HIV-1 (IIIB); [2]): 7.45 nM
Cc1occc1C(=S)Nc1ccc(Cl)c(OCc2sccc2Br)c1 [Compound 76],95.2 nM,EC50 (HIV-1 (IIIB); [2]): 86.1 nM
Cc1occc1C(=S)Nc1ccc(Cl)c(CSc2ccncc2)c1 [Compound 83],13300 nM and 12100 nM,EC50 (HIV-1 (IIIB); [2]): 16500 nM
Cc1occc1C(=O)Nc1ccc(Cl)c(COc2ccccc2C#N)c1 [Compound 29],3480 nM and 3400 nM and 3100 nM and 3760 nM,EC50 (HIV-1 (IIIB); [2]): 3390 nM
CCCOc1ccccc1OCc1cc(NC(=S)c2ccoc2C)ccc1Cl [Compound 55],10000 nM and 9000 nM and 3730 nM and 4260 nM,
Cc1occc1C(=S)Nc1ccc(Cl)c(CSc2ncccn2)c1 [Compound 78],302 nM and 696 nM and 375 nM,
Cc1occc1C(=S)Nc1ccc(Cl)c(COc2ccccc2C(C)(C)C)c1 [Compound 49],384 nM and 599 nM and 1130 nM,
Cc1occc1C(=O)Nc1ccc(Cl)c(COc2ccc(F)cc2Cl)c1 [Compound 42],4660 nM and 18200 nM,

SMILES,EC50 (HIV-1 (IIIB); [1]),further results
Cc1occc1C(=O)Nc1ccc(Cl)c(COc2ccccc2Br)c1 [Compound 35],2290 nM and 3140 nM and 1230 nM,
Cc1occc1C(=S)Nc1ccc(Cl)c(COc2ccccc2C=NN(C)C)c1 [Compound 57],214 nM and 76.6 nM and 79.2 nM,
Cc1occc1C(=O)Nc1ccc(Cl)c(COc2cccnc2)c1 [Compound 81],5500 nM and 3690 nM,
Cc1occc1COc1cc(NC(=S)c2ccoc2C)ccc1Cl [Compound 84],66.1 nM and 255 nM,
Cc1occc1C(=O)Nc1ccc(Br)c(COc2c(F)ccc(F)c2F)c1 [Compound 61],,EC50 (HIV-1 (IIIB); [2]): 2.05 nM
Cc1occc1C(=S)Nc1ccc(Cl)c(OCc2ccccc2F)c1 [Compound 70],9.67 nM,EC50 (HIV-1 (IIIB); [2]): 12.2 nM
Cc1occc1C(=S)Nc1ccc(Cl)c(COc2cccnc2)c1 [Compound 85],211 nM,EC50 (HIV-1 (IIIB); [2]): 151 nM
Cc1occc1C(=O)Nc1ccc(Cl)c(COc2ccccc2C(F)(F)F)c1 [Compound 41],761 nM and 1110 nM,
Cc1occc1C(=O)Nc1ccc(Br)c(COc2ccccc2C(F)(F)F)c1 [Compound 62],195 nM and 817 nM and 552 nM and 793 nM and 554 nM,
COC(=O)c1ccccc1OCc1cc(NC(=S)c2ccoc2C)ccc1Cl [Compound 51],1000 nM and 226 nM and 915 nM and 568 nM,
Cc1occc1C(=S)Nc1ccc(Cl)c(COc2ccccc2)c1 [Compound 2],228 nM and 161 nM and 98.6 nM and 67.6 nM,
Cc1occc1COc1cc(NC(=O)c2ccoc2C)ccc1Cl [Compound 82],1460 nM and 3150 nM and 2430 nM,
Cc1occc1C(=S)Nc1ccc(Cl)c(COc2ccccc2-c2ccccc2)c1 [Compound 48],3110 nM and 2750 nM and 5410 nM,
Cc1occc1C(=S)Nc1ccc(Cl)c(CS(=O)(=O)c2ccccc2Cl)c1 [Compound 77],251 nM and 299 nM and 1110 nM,
Cc1occc1C(=S)Nc1ccc(Cl)c(CSc2ccccc2F)c1 [Compound 71],342 nM and 128 nM and 396 nM,
Cc1occc1C(=O)Nc1ccc(Cl)c(COc2c(F)ccc(F)c2F)c1 [Compound 39],102 nM and 50.7 nM and 113 nM,
CCOc1ccccc1OCc1cc(NC(=S)c2ccoc2C)ccc1Cl [Compound 36],377 nM and 124 nM and 788 nM,
Cc1occc1C(=O)Nc1ccc(Cl)c(COc2cccc([N+](=O)[O-])c2)c1 [Compound 26],4140 nM and 3660 nM,EC50 (HIV-1 (IIIB); [2]): 4610 nM
Cc1occc1C(=O)Nc1ccc(Cl)c(COc2ccccc2F)c1 [Compound 14],771 nM and 395 nM and 255 nM,
COc1cccc(OC)c1OCc1cc(NC(=S)c2ccoc2C)ccc1Cl [Compound 28],6710 nM and 7560 nM and 19600 nM and 10100 nM and 11000 nM,
CCON=Cc1ccccc1OCc1cc(NC(=S)c2ccoc2C)ccc1Cl [Compound 50],1070 nM,
CCc1ccccc1OCc1cc(NC(=O)c2ccoc2C)ccc1Cl [Compound 38],2880 nM and 1450 nM,
Cc1ccccc1OCc1cc(NC(=O)c2ccoc2C)ccc1Cl [Compound 9],13500 nM and 35000 nM,
COC(=O)c1sccc1OCc1cc(NC(=S)c2ccoc2C)ccc1Cl [Compound 74],270 nM and 131 nM and 147 nM,
Cc1occc1C(=O)Nc1ccc(Cl)c(CSc2ccccn2)c1 [Compound 79],2830 nM and 2990 nM and 3300 nM and 1650 nM and 614 nM,
Cc1occc1C(=O)Nc1ccc(Cl)c(COc2ccccc2N)c1 [Compound 52],13700 nM and 16200 nM,
